Results from the supplement of paper PMC11208160.

Test: recombinant barcode read abundance after kanamycin selection (control-corrected) (log10(CPM+1)); higher = more efficient recombination; sequences stand for … in AGTGCAGAGAAAATCGGCCAGTTTTCTCTGCCTGCAGTCCGCATGCCGT…AGATTTATGCAGCGGACTGCCTTTCTCCCAAAGTGATAAACCGGACAGTATCATGGACCGGTTTTCCCGGTAATCCGTATTTGCAAGGTTGGTTTCACT; site = the 11-nt target
In short: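 Recombination efficiency was calculated from barcode counts at recombinant junctions, normalized to counts per million, averaged and corrected by the control. Each value is given as log10(CPM+1). The constructs were Gibson-cloned oligos (promoter, target, barcode, J23119-driven first 104 bridge RNA bases) in a vector with the remaining 73 bp and a T7-inducible recombinase, co-electroporated into E. coli with a donor plasmid and plated in duplicate on chloramphenicol/ampicillin LB agar (control) or chloramphenicol/ampicillin/kanamycin with 0.1 mM IPTG.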
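Further: IS621 recombinase and bridge RNA in Escherichia coli cells.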

In order of rising “recombinant barcode read abundance (log10)” value:
1. TGTCGGCCTTGGGTTCTAACCTGTTGCTT (site TGTCGGCCTAA)  0
2. TTAACTACTTGGGTTCTAACCTGTTGCTC (site TTAACTACTTA)  0
3. TGTCGAGCTTGGGTTCTAACCTGTTGCGG (site TTCCGAGCTCC)  0.00866
4. TTAACTACTTGGGTTCTAACCTGTTGCTC (site TTAACTACTAA)  0.0118
5. TGTCGGACTTGGGTTCTAACCTGTTGCAC (site TGTCGGACTTT)  0.0148
6. TGTTAGCCTTGGGTTCTAACCTGTTGCCA (site GGTTAGCCTAG)  0.0168
7. TGTGAGTCTTGGGTTCTAACCTGTTGCTT (site TGTGAGTCTAC)  0.0217
8. TGTGGGTCTTGGGTTCTAACCTGTTGCCT (site TATGGGTCTAG)  0.0229
9. TGTCTCCCTTGGGTTCTAACCTGTTGCTT (site TGTCTACCTTA)  0.0416
10. TGTGAGTCTTGGGTTCTAACCTGTTGCCT (site TGTGAGTCTAA)  0.0418
11. TGTGAGTCTTGGGTTCTAACCTGTTGCCT (site TGTGAGTCTAT)  0.0543
12. TGTTGCACTTGGGTTCTAACCTGTTGCCT (site TGTTGGCCTAG)  0.0587
13. TGTTAGCCTTGGGTTCTAACCTGTTGCCT (site GGCTAGCCTAG)  0.0606
14. TGTTGCACTTGGGTTCTAACCTGTTGCCT (site TGTTGCACTAG)  0.0616
15. TGTGTCCCTTGGGTTCTAACCTGTTGCCG (site TGTCTCCCTCG)  0.0681
16. TGTTAGCCTTGGGTTCTAACCTGTTGCCA (site TGTTAGCCTTG)  0.0869
17. TGTTAGCCTTGGGTTCTAACCTGTTGCCT (site TGTTAGCCTAG)  0.0878
18. TTACAATCTTGGGTTCTAACCTGTTGCCT (site GTACAATCTAG)  0.0953
19. TGTCGGCCTTGGGTTCTAACCTGTTGCTT (site CTATTTACTCC)  0.107
20. TGTGACACTTGGGTTCTAACCTGTTGCAA (site AACAGGCCTAG)  0.121
21. TTAACTACTTGGGTTCTAACCTGTTGCTC (site TTAACTACTCA)  0.126
22. TTAAGTCCTTGGGTTCTAACCTGTTGCCT (site TTCAGTCCTAT)  0.134
23. TGTGAGTCTTGGGTTCTAACCTGTTGCTT (site TGTGAGTCTAG)  0.193
24. TTAACTACTTGGGTTCTAACCTGTTGCTC (site TTAACTACTGA)  0.195
25. TGTCGGACTTGGGTTCTAACCTGTTGCAC (site TGTCGGACTCT)  0.214
26. TTACCTACTTGGGTTCTAACCTGTTGCCT (site TTACCAACTAG)  0.237
27. TTACAATCTTGGGTTCTAACCTGTTGCCT (site ATACAATCTAG)  0.31
28. TTAAGACCTTGGGTTCTAACCTGTTGCCT (site TTAAGCCCTAG)  0.336
29. TTACAATCTTGGGTTCTAACCTGTTGCCT (site CTACAATCTAG)  0.337
30. TGTCGGACTTGGGTTCTAACCTGTTGCAC (site TGTCGGACTGT)  0.38
31. TGTGGGTCTTGGGTTCTAACCTGTTGCCT (site TGTGGGTCTAG)  0.393
32. TTAAGTCCTTGGGTTCTAACCTGTTGCCT (site TTAAGTCCTAG)  0.448
33. TGTGAGTCTTGGGTTCTAACCTGTTGCTT (site TGTGAGTCTAA)  0.549
34. TGTGAGTCTTGGGTTCTAACCTGTTGCCT (site TGTGAGTCTAC)  0.73
35. TGTCGGACTTGGGTTCTAACCTGTTGCAC (site TGTCGGACTAT)  0.741
36. TTACAATCTTGGGTTCTAACCTGTTGCCT (site TTACAATCTAG)  0.764
37. TGTCTCCCTTGGGTTCTAACCTGTTGCTT (site TGTCTCCCTAA)  0.777
38. TGTGAGTCTTGGGTTCTAACCTGTTGCTT (site TGTGAGTCTAT)  0.799
39. TGTCGAGCTTGGGTTCTAACCTGTTGCGG (site TGTCGAGCTCC)  0.977
40. TGTGAGTCTTGGGTTCTAACCTGTTGCCT (site TGTGAGTCTAG)  1.1
41. TGTGTCCCTTGGGTTCTAACCTGTTGCCG (site TGTGTCCCTCG)  1.1
42. TTAAGACCTTGGGTTCTAACCTGTTGCCT (site TTAAGACCTAG)  1.37
43. TGTGACACTTGGGTTCTAACCTGTTGCAA (site TGTGACACTTT)  1.54
